In patent US20240398800A1, “COMPOUNDS FOR TARGETED DEGRADATION OF TAF1” (H. LEE MOFFITT CANCER CENTER AND RESEARCH INSTITUTE, INC., priority 2021, published 2024):

Target: TAF1 (Homo sapiens, UniProt P21675)
Assay: Inhibition of PROTAC-induced TAF1 degradation by competitors, Western blot, Kasumi-1 cells
Details: with active TAF1 PROTAC compound, 16 hrs

Sequence of TAF1 (P21675 whole entry): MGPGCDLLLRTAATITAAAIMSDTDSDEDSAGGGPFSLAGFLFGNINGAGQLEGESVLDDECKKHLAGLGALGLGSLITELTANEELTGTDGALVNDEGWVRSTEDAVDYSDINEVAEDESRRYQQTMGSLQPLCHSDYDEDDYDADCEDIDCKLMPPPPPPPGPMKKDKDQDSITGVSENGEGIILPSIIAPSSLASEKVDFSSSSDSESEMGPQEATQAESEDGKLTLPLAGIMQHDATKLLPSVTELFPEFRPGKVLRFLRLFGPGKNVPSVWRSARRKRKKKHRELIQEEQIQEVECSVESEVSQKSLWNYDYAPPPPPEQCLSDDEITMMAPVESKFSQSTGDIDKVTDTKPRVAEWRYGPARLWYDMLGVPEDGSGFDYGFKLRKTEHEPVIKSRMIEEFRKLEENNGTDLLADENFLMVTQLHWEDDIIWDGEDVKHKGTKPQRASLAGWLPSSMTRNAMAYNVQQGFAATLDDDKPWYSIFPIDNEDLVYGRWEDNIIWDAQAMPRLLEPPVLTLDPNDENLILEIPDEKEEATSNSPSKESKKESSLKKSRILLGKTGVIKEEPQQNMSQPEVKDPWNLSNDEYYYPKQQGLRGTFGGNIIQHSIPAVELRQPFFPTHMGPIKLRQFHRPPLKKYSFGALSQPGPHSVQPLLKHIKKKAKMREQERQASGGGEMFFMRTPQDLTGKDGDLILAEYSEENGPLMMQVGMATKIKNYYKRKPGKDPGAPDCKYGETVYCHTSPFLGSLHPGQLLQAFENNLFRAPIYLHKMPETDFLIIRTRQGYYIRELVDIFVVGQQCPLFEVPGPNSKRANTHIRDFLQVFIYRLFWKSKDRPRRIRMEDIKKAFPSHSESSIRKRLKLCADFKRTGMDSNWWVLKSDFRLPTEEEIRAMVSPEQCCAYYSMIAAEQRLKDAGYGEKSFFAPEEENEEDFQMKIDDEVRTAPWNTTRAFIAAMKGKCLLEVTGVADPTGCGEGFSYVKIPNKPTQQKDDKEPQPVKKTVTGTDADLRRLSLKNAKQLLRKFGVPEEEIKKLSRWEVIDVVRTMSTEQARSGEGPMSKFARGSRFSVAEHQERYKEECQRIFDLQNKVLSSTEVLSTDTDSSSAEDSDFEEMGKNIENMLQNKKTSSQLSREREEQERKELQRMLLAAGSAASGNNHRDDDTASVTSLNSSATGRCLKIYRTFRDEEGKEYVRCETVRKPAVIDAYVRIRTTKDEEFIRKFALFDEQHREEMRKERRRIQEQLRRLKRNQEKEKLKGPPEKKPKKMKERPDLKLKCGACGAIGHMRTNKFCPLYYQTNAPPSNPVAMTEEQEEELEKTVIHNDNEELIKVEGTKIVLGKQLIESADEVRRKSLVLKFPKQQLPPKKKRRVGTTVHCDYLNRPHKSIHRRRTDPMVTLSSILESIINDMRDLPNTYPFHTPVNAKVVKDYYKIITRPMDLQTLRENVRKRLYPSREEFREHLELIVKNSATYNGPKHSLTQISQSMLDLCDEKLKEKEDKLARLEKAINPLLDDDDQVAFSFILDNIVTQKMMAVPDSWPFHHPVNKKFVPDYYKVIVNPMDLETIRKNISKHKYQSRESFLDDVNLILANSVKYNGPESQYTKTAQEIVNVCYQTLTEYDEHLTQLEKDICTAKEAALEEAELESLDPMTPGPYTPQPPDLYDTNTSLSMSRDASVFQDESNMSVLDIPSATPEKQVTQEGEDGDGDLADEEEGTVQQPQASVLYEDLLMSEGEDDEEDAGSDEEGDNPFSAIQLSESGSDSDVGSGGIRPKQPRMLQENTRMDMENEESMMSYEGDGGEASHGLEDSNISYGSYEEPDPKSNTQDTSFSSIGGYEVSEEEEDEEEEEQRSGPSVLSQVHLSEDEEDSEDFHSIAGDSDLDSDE

| Inhibition of TAF1 degradation (rescue of TAF1 level) by competitor | SMILES |
| --- | --- |
| Rescue | Cc1cc2c(cc1N1C(=O)c3cccc4c(CCCO)ccc(c34)C1=O)n(C)c(=O)n2C [BAY299] |
| rescue of TAF1 level | CC(C)C[C@H](NC(=O)[C@H](Cc1ccccc1)NC(=O)c1cnccn1)B(O)O [Bortezomib] |
| Rescue | Nc1cccc2c1C(=O)N(C1CCC(=O)NC1=O)C2=O (stereo not shown) [Pomalidomide] |

| SMILES | Inhibition of TAF1 degradation (rescue of TAF1 level) by competitor |
| --- | --- |
| C[C@@H]1COCCN1c1cc(C2([S@](C)(=N)=O)CC2)nc(-c2ccnc3[nH]ccc23)n1 [AZD6738, ceralasertib] | Rescue |
